≈ marks a conversion by molar mass, not a printed value. Where two headings read alike, the source gives them in different places.
Key:
S. aureus ATCC 25923 [1] = experiment: Antibacterial activity, pre-exposure (planktonic cells and biofilm formation); format: cell-based, Staphylococcus aureus; conditions: for MIC / inhibition at 5 µM / inhibition at 10 µM / inhibition at 15 µM / inhibition at 25 µM: Staphylococcus aureus, ATCC25923; for inhibition at 5 µM / inhibition at 10 µM / inhibition at 15 µM / inhibition at 25 µM / Average inhibition %, biofilms viability / Average inhibition %, planktonic cells viability: pre-exposure, ± SD
Method in brief: (§1)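 Pre-exposure format: compound and bacterial culture co-incubated 18 h, 37 °C, aerobic, 220 rpm. Planktonic: turbidity (OD) plus resazurin viability, 20 μM final. Biofilm: PBS wash, 20 μM resazurin, then ethanol fixation and crystal violet staining, A595.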

S. aureus ATCC 25923 [2] = experiment: Antibacterial activity, post-exposure on preformed 18-h-old biofilms; format: cell-based, Staphylococcus aureus; conditions: ± SD; for inhibition at 25 µM / inhibition at 50 µM / inhibition at 100 µM / inhibition at 200 µM: Staphylococcus aureus; for inhibition at 25 µM: ATCC25923, 25 µM; for inhibition at 50 µM: ATCC25923, 50 µM; for inhibition at 100 µM: ATCC25923, 100 µM; for inhibition at 200 µM: ATCC25923, 200 µM
Method in brief: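 Compounds were applied to preformed 18-h biofilms after medium change and left 24 h. Read-outs: planktonic OD plus resazurin fluorescence (20 μM), biofilm metabolic activity by resazurin 30 min at 37 °C, then biomass by crystal violet absorbance at 595 nm after ethanol fixation.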

A. baumannii NCTC 13423 = experiment: Antibacterial activity, pre-exposure; format: cell-based, Acinetobacter baumannii; conditions: for Average inhibition %, biofilms viability / Average inhibition %, planktonic cells viability / inhibition at 10 µM / inhibition at 15 µM / inhibition at 25 µM / inhibition at 50 µM: A. baumannii NCTC 13423, pre-exposure, ± SD; for inhibition at 10 µM / inhibition at 15 µM / inhibition at 25 µM / inhibition at 50 µM: Acinetobacter baumannii, NCTC13423
Method in brief: as §1

P. aeruginosa ATCC 9027 = experiment: Antibacterial activity, pre-exposure; format: cell-based, Pseudomonas aeruginosa; conditions: for Average inhibition %, biofilms viability / Average inhibition %, planktonic cells viability / inhibition at 50 µM / inhibition at 100 µM / inhibition at 150 µM / inhibition at 200 µM: P. aeruginosa ATCC 9027, pre-exposure, ± SD; for inhibition at 50 µM / inhibition at 100 µM / inhibition at 150 µM / inhibition at 200 µM: Pseudomonas aeruginosa, ATCC9027
Method in brief: as §1

[3] = 10 µM, read-out: Average inhibition %, biofilms biomass
[4] = 10 µM, read-out: Average inhibition %, planktonic cells turbidity
[5] = 15 µM, read-out: Average inhibition %, biofilms biomass
[6] = 15 µM, read-out: Average inhibition %, planktonic cells turbidity
[7] = 25 µM, read-out: Average inhibition %, biofilms biomass
[8] = 25 µM, read-out: Average inhibition %, planktonic cells turbidity
[9] = read-out: Average inhibition %, biofilms biomass
[10] = read-out: Average inhibition %, planktonic cells turbidity
[11] = 50 µM, read-out: Average inhibition %, biofilms biomass
[12] = 50 µM, read-out: Average inhibition %, planktonic cells turbidity

Structure (SMILES): CCCCCCCCCCOc1ccc(CCC(N)(CO)CO)cc1 [Compound 49, 2-Amino-2-[4-(decyloxy)phenethyl]propane-1,3-diol]
- MIC (S. aureus ATCC 25923 [1]; lowest concentration with no visible growth (>90% inhibition of turbidity and viability of planktonic cells), 18 h, read-out: MIC S. aureus ATCC 25923): 50 to 100 µM (≈ 17.6 to 35.2 µg/mL)
- inhibition at 5 µM (S. aureus ATCC 25923 [1]; 5 µM, read-out: Average inhibition %, biofilms biomass): 21.1 ± 15.7%
- inhibition at 5 µM (S. aureus ATCC 25923 [1]; 5 µM, read-out: Average inhibition %, planktonic cells turbidity): 25 ± 31.1%
- inhibition at 10 µM (S. aureus ATCC 25923 [1]; [3]): 24.7 ± 21.7%
- inhibition at 10 µM (S. aureus ATCC 25923 [1]; [4]): 40.2 ± 21.5%
- inhibition at 15 µM (S. aureus ATCC 25923 [1]; [5]): 42.1 ± 13.8%
- inhibition at 15 µM (S. aureus ATCC 25923 [1]; [6]): 32.7 ± 33.7%
- inhibition at 25 µM (S. aureus ATCC 25923 [1]; [7]): 65 ± 8%
- inhibition at 25 µM (S. aureus ATCC 25923 [1]; [8]): 52 ± 35.7%
- MIC (S. aureus ATCC 25923 [1]; read-out: MIC (S. aureus)): 50 to 100 µM (≈ 17.6 to 35.2 µg/mL)
- Average inhibition %, biofilms viability (S. aureus ATCC 25923 [1]; 5 µM): 21.8 ± 13.4%
- Average inhibition %, planktonic cells viability (S. aureus ATCC 25923 [1]; 5 µM): 5.8 ± 6.5%
- Average inhibition %, biofilms viability (S. aureus ATCC 25923 [1]; 10 µM): 19.2 ± 19.6%
- Average inhibition %, planktonic cells viability (S. aureus ATCC 25923 [1]; 10 µM): 16 ± 20.8%
- Average inhibition %, biofilms viability (S. aureus ATCC 25923 [1]; 15 µM): 34.9 ± 12.5%
- Average inhibition %, planktonic cells viability (S. aureus ATCC 25923 [1]; 15 µM): 6.5 ± 7.4%
- Average inhibition %, biofilms viability (S. aureus ATCC 25923 [1]; 25 µM): 46.4 ± 5.4%
- Average inhibition %, planktonic cells viability (S. aureus ATCC 25923 [1]; 25 µM): 34.4 ± 41.1%
- Average inhibition %, biofilms viability (S. aureus ATCC 25923 [2]; 25 µM): 23.1 ± 12%
- Average inhibition %, planktonic cells viability (S. aureus ATCC 25923 [2]; 25 µM): 0 ± 0%
- Average inhibition %, biofilms viability (S. aureus ATCC 25923 [2]; 50 µM): 31.6 ± 11.1%
- Average inhibition %, planktonic cells viability (S. aureus ATCC 25923 [2]; 50 µM): 0 ± 0%
- Average inhibition %, biofilms viability (S. aureus ATCC 25923 [2]; 100 µM): 30.4 ± 13.1%
- Average inhibition %, planktonic cells viability (S. aureus ATCC 25923 [2]; 100 µM): 6 ± 10.4%
- Average inhibition %, biofilms viability (S. aureus ATCC 25923 [2]; 200 µM): 18.9 ± 12.3%
- Average inhibition %, planktonic cells viability (S. aureus ATCC 25923 [2]; 200 µM): 24.6 ± 9.6%
- inhibition at 25 µM (S. aureus ATCC 25923 [2]; [9]): 46.2 ± 2.6%
- inhibition at 25 µM (S. aureus ATCC 25923 [2]; [10]): 1 ± 1.8%
- inhibition at 50 µM (S. aureus ATCC 25923 [2]; [9]): 41.6 ± 16.2%
- inhibition at 50 µM (S. aureus ATCC 25923 [2]; [10]): 6.6 ± 6.1%
- inhibition at 100 µM (S. aureus ATCC 25923 [2]; [9]): 47.3 ± 10.1%
- inhibition at 100 µM (S. aureus ATCC 25923 [2]; [10]): 18.3 ± 26.2%
- inhibition at 200 µM (S. aureus ATCC 25923 [2]; [9]): 41.4 ± 16.7%
- inhibition at 200 µM (S. aureus ATCC 25923 [2]; [10]): 45 ± 23.1%
- Average inhibition %, biofilms viability (A. baumannii NCTC 13423; 10 µM): 0 ± 0%
- Average inhibition %, planktonic cells viability (A. baumannii NCTC 13423; 10 µM): 12 ± 4.3%
- Average inhibition %, biofilms viability (A. baumannii NCTC 13423; 15 µM): 0 ± 0%
- Average inhibition %, planktonic cells viability (A. baumannii NCTC 13423; 15 µM): 8.5 ± 10.6%
- Average inhibition %, biofilms viability (A. baumannii NCTC 13423; 25 µM): 0 ± 0%
- Average inhibition %, planktonic cells viability (A. baumannii NCTC 13423; 25 µM): 2.6 ± 4.5%
- Average inhibition %, biofilms viability (A. baumannii NCTC 13423; 50 µM): 9 ± 8.3%
- Average inhibition %, planktonic cells viability (A. baumannii NCTC 13423; 50 µM): 0 ± 0%
- inhibition at 10 µM (A. baumannii NCTC 13423; [3]): 0%
- inhibition at 10 µM (A. baumannii NCTC 13423; [4]): 0%
- inhibition at 15 µM (A. baumannii NCTC 13423; [5]): 1.5 ± 2.4%
- inhibition at 15 µM (A. baumannii NCTC 13423; [6]): 0%
- inhibition at 25 µM (A. baumannii NCTC 13423; [7]): 1.1 ± 1.9%
- inhibition at 25 µM (A. baumannii NCTC 13423; [8]): 0%
- inhibition at 50 µM (A. baumannii NCTC 13423; [11]): 4.1 ± 7.2%
- inhibition at 50 µM (A. baumannii NCTC 13423; [12]): 1.2 ± 2.1%
- MIC A. baumannii NCTC 13423 (A. baumannii NCTC 13423; pre-exposure, Inactive = no activity up to 50 μM, > = some inhibition but no MIC reached): Inactive
- Average inhibition %, biofilms viability (P. aeruginosa ATCC 9027; 50 µM): 1.1 ± 1%
- Average inhibition %, planktonic cells viability (P. aeruginosa ATCC 9027; 50 µM): 11.2 ± 5%
- Average inhibition %, biofilms viability (P. aeruginosa ATCC 9027; 100 µM): 1.4 ± 1.7%
- Average inhibition %, planktonic cells viability (P. aeruginosa ATCC 9027; 100 µM): 11 ± 9.5%
- Average inhibition %, biofilms viability (P. aeruginosa ATCC 9027; 150 µM): 1.8 ± 2.2%
- Average inhibition %, planktonic cells viability (P. aeruginosa ATCC 9027; 150 µM): 10.3 ± 10.8%
- Average inhibition %, biofilms viability (P. aeruginosa ATCC 9027; 200 µM): 4.2 ± 7.4%
- Average inhibition %, planktonic cells viability (P. aeruginosa ATCC 9027; 200 µM): 8.8 ± 10.7%
- inhibition at 50 µM (P. aeruginosa ATCC 9027; [11]): 5.1 ± 7.7%
- inhibition at 50 µM (P. aeruginosa ATCC 9027; [12]): 11.2 ± 9.7%
- inhibition at 100 µM (P. aeruginosa ATCC 9027; 100 µM, read-out: Average inhibition %, biofilms biomass): 2.5 ± 1.1%
- inhibition at 100 µM (P. aeruginosa ATCC 9027; 100 µM, read-out: Average inhibition %, planktonic cells turbidity): 19.8 ± 7.4%
- inhibition at 150 µM (P. aeruginosa ATCC 9027; 150 µM, read-out: Average inhibition %, biofilms biomass): 2.8 ± 4.2%
- inhibition at 150 µM (P. aeruginosa ATCC 9027; 150 µM, read-out: Average inhibition %, planktonic cells turbidity): 11.4 ± 10.1%
- inhibition at 200 µM (P. aeruginosa ATCC 9027; 200 µM, read-out: Average inhibition %, biofilms biomass): 2.2 ± 2.8%
- inhibition at 200 µM (P. aeruginosa ATCC 9027; 200 µM, read-out: Average inhibition %, planktonic cells turbidity): 16.7 ± 3%
- MIC P. aeruginosa ATCC 9027 (P. aeruginosa ATCC 9027; pre-exposure, Inactive = no activity up to 200 μM, > = some inhibition but no MIC reached): Inactive
